Measurements from patent publication US11332439B2, “Anthocyanin complex synthesized from date palm leaf extract” (UNITED ARAB EMIRATES UNIVERSITY, priority 2020, dated 2022).

Assay: Antioxidant activity using DPPH as a free radical (Brand-Williams method)
Type: biochemical
Conditions: for antiradical power (ARP): ARP=I/EC50, larger ARP indicates a more efficient antioxidant; for time to reach steady state in reaction with DPPH*: reaction kinetics, absorbance at 515 nm, methanol
Protocol: Antioxidant activity of the co-pigmented anthocyanin complex was assessed using DPPH as a free radical according to the Brand-Williams method. Activity of the co-pigmented anthocyanin complex was compared with two known antioxidants, ascorbic acid and Trolox. Concentrations tested are expressed as moles of antioxidant per mole DPPH. Briefly, an antioxidant solution in methanol (0.1 ml) was added to 3.9 ml of a 6×10^−5 mol/L methanol DPPH* solution. The decrease in absorbance was determined at 515 nm at 0 min, 1 min, and every 15 min until the reaction reached a plateau. The extract initial DPPH* concentration (CDPPH) in the reaction medium was calculated from a calibration curve with the equation Abs515 nm=0.0765×(CDPPH)+0.1118 as determined by linear regression (R2=0.9994). For each antioxidant concentration tested, the reaction kinetics were plotted (see FIGS. 6A-6C). From these graphs, the percentage of DPPH* remaining at the steady state was determined, and the values were transferred onto another graph showing percentage of residual DPPH* at the steady state as a function of the molar ratio of antioxidant to DPPH*. Antiradical activity was defined as the amount of antioxidant necessary to decrease the initial DPPH* concentration by 50% (Efficient Concentration=EC50 (mol/L)). The results were analyzed in terms of antiradical power (ARP), with a larger ARP indicating a more efficient antioxidant (ARP=I/EC50 AO/(mol/L) DPPH*).

Compound | antiradical power (ARP) | time to reach steady state in reaction with DPPH*
O=C1O[C@H]([C@@H](O)CO)C(O)=C1O [ascorbic acid] | 0.329 | approximately 30 minutes
Cc1c(C)c2c(c(C)c1O)CCC(C)(C(=O)O)O2 (stereo not shown) [Trolox] | 4.65 | less than a minute
